The text below walks through data of US20260137703A1, “2-AMINO-PYRIDO[2,3-D]PYRIMIDIN-7(8H)-ONE AND 7-AMINO-1-PYRIMIDO[4,5-D]PYRIMIDIN-2(1 H)-ONE DERIVATIVES AS EGFR INHIBITORS FOR THE TREATMENT OF CANCER” (Cancer Research Technology Limited, priority 2022, published 2026).

For experiment [1], the target named is CtermHisTag-mEGFR Wild type (Homo sapiens, UniProt P00533).
Experiment [2] has as its target T1, Phospho-EGFR (Tyr1068) in H1975 cells (Homo sapiens, UniProt P00533, L858R/T790M).
T1 construct: host or cells: H1975
The experiment in a line: HTRF pEGFR/total EGFR in H1975 cells. In kind it is cell-based. Particulars: ratio pEGFR/total EGFR, compound 3 hours. A digest of the protocol: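 Readout is the phospho-EGFR (Tyr1068) to total EGFR HTRF ratio, expressed relative to 0 μM control. Adhered H1975 cells were exposed to compound for 3 hours at 0.1% DMSO, duplicate wells, then lysed for 30 min at room temperature before two-wavelength fluorescence reading.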
In general terms: Time-resolved FRET reads energy transfer from a long-lived donor to a nearby acceptor.

The target of experiment [3] is T2, Phospho-EGFR (Tyr1068) in H1975 C797S cells (CRISPR-edited EGFR C797S) (Homo sapiens, UniProt P00533, C797S/L858R/T790M).
T2 construct: host or cells: H1975 C797S (CRISPR-edited)
The experiment in a line: HTRF pEGFR/total EGFR in H1975 C797S cells. Particulars: ratio pEGFR/total EGFR, compound 3 hours. The class given is cell-based. A digest of the protocol:
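Readout is the HTRF-measured Tyr1068 phospho-EGFR to total EGFR ratio, normalised to the 0 μM control as percent. Preceding this, CRISPR-edited H1975 C797S cells, plated 24 h earlier, were exposed 3 h to duplicate compound doses in medium with 0.1% DMSO, then lysed on a shaker.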

A value given as a limit tells only on which side of the number the result lay.

T1 sequence (P00533 25-1210 T790M/L858R): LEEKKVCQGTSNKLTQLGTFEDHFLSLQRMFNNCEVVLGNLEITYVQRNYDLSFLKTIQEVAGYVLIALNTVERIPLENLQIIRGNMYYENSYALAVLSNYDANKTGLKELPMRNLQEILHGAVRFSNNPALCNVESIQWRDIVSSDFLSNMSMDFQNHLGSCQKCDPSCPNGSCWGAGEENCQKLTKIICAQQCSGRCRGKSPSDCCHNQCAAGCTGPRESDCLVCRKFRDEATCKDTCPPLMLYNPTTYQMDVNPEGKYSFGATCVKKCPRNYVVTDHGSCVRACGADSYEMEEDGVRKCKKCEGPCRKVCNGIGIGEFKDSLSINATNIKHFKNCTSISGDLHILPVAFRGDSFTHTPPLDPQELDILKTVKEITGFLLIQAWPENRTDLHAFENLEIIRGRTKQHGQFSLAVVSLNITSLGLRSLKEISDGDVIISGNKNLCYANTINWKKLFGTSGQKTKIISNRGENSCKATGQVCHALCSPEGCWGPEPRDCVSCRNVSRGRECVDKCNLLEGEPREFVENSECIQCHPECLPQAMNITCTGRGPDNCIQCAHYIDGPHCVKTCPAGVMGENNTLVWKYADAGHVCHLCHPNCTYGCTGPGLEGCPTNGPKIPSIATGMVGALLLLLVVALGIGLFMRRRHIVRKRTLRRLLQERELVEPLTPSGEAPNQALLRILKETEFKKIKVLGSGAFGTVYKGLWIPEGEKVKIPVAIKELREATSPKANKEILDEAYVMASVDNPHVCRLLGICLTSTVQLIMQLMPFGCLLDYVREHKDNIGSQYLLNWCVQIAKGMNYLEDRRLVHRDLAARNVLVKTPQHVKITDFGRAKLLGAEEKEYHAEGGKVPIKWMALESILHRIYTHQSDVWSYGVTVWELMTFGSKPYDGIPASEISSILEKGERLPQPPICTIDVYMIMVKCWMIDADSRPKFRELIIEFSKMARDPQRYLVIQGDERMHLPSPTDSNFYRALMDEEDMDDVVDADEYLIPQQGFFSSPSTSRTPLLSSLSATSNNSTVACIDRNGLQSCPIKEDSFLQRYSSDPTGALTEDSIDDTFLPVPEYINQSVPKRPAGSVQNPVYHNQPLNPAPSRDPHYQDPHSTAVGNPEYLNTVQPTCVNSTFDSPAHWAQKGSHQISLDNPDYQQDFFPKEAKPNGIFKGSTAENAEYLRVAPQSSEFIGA
Sequence of CtermHisTag-mEGFR Wild type (P00533 whole entry): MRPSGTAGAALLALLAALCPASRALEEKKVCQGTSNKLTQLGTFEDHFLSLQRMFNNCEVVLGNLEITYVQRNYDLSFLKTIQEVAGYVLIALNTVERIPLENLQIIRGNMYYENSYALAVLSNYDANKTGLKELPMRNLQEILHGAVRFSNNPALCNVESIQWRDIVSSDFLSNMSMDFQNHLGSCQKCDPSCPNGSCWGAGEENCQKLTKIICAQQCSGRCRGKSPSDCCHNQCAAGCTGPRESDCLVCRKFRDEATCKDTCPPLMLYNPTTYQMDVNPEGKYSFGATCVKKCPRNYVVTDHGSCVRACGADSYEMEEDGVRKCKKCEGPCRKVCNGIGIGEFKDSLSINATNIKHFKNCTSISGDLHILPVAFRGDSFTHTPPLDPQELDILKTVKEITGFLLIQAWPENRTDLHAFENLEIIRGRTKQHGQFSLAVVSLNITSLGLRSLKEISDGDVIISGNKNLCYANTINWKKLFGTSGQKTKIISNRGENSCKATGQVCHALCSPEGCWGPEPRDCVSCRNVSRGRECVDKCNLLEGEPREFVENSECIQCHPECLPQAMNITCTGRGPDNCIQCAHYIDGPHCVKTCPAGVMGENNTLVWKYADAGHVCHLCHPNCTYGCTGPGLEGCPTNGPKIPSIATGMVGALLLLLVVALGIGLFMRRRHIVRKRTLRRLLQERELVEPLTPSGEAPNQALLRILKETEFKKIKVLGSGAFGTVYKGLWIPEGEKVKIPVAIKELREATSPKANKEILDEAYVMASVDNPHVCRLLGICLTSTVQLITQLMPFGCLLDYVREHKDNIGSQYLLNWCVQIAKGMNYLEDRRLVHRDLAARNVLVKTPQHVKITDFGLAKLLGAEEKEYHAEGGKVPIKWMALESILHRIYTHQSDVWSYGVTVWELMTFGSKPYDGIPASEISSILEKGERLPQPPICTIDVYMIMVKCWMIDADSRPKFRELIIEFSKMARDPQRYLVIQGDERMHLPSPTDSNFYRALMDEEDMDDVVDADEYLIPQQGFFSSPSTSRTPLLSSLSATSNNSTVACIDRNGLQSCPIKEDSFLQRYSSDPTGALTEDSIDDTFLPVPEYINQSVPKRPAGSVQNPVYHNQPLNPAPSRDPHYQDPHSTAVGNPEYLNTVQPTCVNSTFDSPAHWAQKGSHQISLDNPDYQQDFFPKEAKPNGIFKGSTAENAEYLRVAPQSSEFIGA
T2 sequence (P00533 25-1210 T790M/C797S/L858R): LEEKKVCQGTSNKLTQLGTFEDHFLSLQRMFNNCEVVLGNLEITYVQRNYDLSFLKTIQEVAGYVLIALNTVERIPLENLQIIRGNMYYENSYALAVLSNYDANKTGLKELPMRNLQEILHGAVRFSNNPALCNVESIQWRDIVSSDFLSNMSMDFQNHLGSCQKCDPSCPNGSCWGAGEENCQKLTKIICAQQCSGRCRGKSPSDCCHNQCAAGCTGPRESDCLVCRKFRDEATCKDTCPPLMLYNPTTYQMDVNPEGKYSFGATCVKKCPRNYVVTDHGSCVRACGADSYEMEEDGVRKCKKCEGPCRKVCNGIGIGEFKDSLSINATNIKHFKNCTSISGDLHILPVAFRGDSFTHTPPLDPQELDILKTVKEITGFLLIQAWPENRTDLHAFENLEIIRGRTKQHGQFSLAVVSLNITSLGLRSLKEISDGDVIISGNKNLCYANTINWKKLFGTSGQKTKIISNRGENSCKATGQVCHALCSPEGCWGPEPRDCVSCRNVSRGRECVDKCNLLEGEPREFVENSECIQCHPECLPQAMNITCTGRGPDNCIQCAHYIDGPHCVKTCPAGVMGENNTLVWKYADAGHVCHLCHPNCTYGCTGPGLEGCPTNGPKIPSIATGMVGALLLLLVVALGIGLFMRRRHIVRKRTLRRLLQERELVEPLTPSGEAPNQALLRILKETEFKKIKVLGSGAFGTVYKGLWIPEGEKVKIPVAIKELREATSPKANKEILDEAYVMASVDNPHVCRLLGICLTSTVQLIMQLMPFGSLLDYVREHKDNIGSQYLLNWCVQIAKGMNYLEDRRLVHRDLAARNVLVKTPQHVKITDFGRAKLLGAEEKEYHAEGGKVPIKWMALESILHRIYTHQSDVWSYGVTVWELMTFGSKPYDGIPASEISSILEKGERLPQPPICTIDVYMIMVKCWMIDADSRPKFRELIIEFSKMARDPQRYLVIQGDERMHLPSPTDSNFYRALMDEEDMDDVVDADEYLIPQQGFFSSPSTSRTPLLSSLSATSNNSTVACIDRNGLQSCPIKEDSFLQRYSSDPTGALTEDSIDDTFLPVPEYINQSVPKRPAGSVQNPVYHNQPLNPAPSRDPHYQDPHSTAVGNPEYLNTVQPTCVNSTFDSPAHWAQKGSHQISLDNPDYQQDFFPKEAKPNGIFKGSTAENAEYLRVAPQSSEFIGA

One may read the IC50 as the midpoint of a concentration-inhibition curve. As to `C=Cc1c(-c2ccccc2Cl)c(=O)n(C)c2nc(Nc3ccc(N4CCN(C)CC4)cc3OC)ncc12` [Example 171, 6-(2-chlorophenyl)-5-ethenyl-2-{[2-methoxy-4-(4-methylpiperazin-1-yl)phenyl]amino}-8-methylpyrido[2,3-d]pyrimidin-7-one], the IC50 was over 10000 nM in experiment [1] and over 3000 nM in experiment [2].
With `C#Cc1cc(=O)n(C2CCCC2)c2nc(Nc3cccc(N(C)[C@H]4C[C@@H](CS(C)(=O)=O)C4)c3)ncc12` [Example 203], the IC50 in experiment [1] was under 1000 nM; in experiment [3], over 3000 nM; in experiment [2] it was over 3000 nM.
